Assay results published in patent publication US20220040212A1, “ORAL REHYDRATION COMPOSITION WITH OLIGOSACCHARIDES” (ABBOTT LABORATORIES, priority 2013, published 2022).
“And” between values parts separate entries of the source, which are not always exact repeats. Identical values can stand only once.

How the values were obtained:
[1] = Stability of 2′-FL, LNnT and 6′-SL in an ORC over time (0 D to 14 weeks); format: physicochemical; details: for % Remaining * (6′-SL): vs target fortification
Method: Another study was performed to determine the stability of 2′-FL, LNnT, and 6′-SL in an ORC over time (e.g., 1 week, 3 weeks, 6 weeks, and 14 weeks).
Sample Preparation: A master batch with a pH of 4.25 is sub-divided. The oligosaccharides are added to the respective ORC in an amount of 0.2 g/L for 2′-FL and 6′-SL, LNnT was fortified in an amount of 0.256 g/L. The pH was then adjusted from 4.25 to 3.5 by addition of citric acid. Prior to sterilization, samples are collected to evaluate oligosaccharide levels. The formulas were then delivered into 1 L bottles and subjected to heat sterilization and allowed to cool to room temperature.
The data on day 0 was collected in duplicate for samples prior to sterilization (unsterile) and after sterilization (sterile), thereafter the data was collected only on the sterilized samples. […] The slight fluctuation in lactose and lactulose levels are likely due to method variability.
The data on day 0 was collected in duplicate for samples prior to sterilization (unsterile) and after sterilization (sterile), thereafter the data was collected only on the sterilized samples.
The data on day 0 was collected in duplicate for samples prior to sterilization (unsterile) and after sterilization (sterile), thereafter the data was collected only on the sterilized samples. […] At 14 weeks, the concentration was 2.3% of the target fortification amount.

[2] = Stability of oligosaccharides in oral rehydration solution, before/after retort sterilization and 3 weeks after (HPAEC); format: physicochemical; details: for 6′-SL / Lactose / Sialic acid / % Theoretical 6′-SL: 6′-SL sample, pH 3.5; for % Theoretical 6′-SL: fortification 0.2 g/L
Method: A study was conducted to determine the relative stabilities of GOS, FOS, 2′-FL, 6′-SL, and LNnT in an oral rehydration solution. A master batch of product was prepared (shown in Table 1), the pH adjusted to approx. 4.25, and subsequently divided into five sub-batches.
Oligosaccharide ingredients were added to each of the sub-batches in amounts shown Table 2, and the pH of each sub-batch was subsequently adjusted to 3.5 with citric acid. The solutions were filled into 1 L plastic bottles, capped and retorted with a cook temperature of 217° F. for 25 minutes. Duplicate samples were collected immediately prior to sterilization and within 24 h after sterilization. Prior to sample analysis, the unsterile samples were stored at refrigerated temperature (˜40° F.) and the sterilized samples were held ambient temperature.
Samples were analyzed by HPAEC using a Dionex ICS3000 Ion Chromatography System (Thermo Scientific, Inc., Sunnyvale, Calif.) equipped with a pulsed amperometric detector comprised of a AgCl reference electrode, gold working electrode, and CarboPac PA1 guard (4×50 mm) and analytical columns (4×250 mm). Mobile phases were degassed and pressurized with 3 to 5 psi helium, and oligosaccharides eluted from the columns using various gradients detailed in Tables 3-5 at a flow rate of 1.0 mL/min. The column and detector were held at 20±2° C. Oligosaccharide identification and concentration were determined from quadratic fit (not forced through the origin) standard curves. […]
2′-FL fortification was calculated to be 0.2 g/L. Testing samples were reconstituted at 20 mL to 100 ml, with water, and then filtered using a 0.2 μm PES membrane syringe filter.
LNnT fortification was calculated to be 0.256 g/L. Testing samples were reconstituted at 20 mL to 100 ml, with water, and then filtered using a 0.2 μm PES membrane syringe filter.
6′-SL fortification was calculated to be 0.2 g/L. Testing samples were reconstituted at 20 mL to 100 mL with water, and then filtered using a 0.2 μm PES membrane syringe filter.

[3] = 6′-SL ORC pH 3.5, 0 D, sterile, average
[4] = 6′-SL ORC pH 3.5, 0 D, sterile, samples 1, 2
[5] = 6′-SL ORC pH 3.5, 0 D, unsterile, average
[6] = 6′-SL ORC pH 3.5, 0 D, unsterile, samples 1, 2
[7] = 6′-SL ORC pH 3.5, 3 WK, sterile, average
[8] = 6′-SL ORC pH 3.5, 3 WK, sterile, samples 1, 2
[9] = 6′-SL ORC pH 3.5, 6 WK, sterile, average
[10] = 6′-SL ORC pH 3.5, 6 WK, sterile, samples 1, 2
[11] = 6′-SL ORC pH 3.5, 14 WK, sterile, average
[12] = 6′-SL ORC pH 3.5, 14 WK, sterile, samples 1, 2
[13] = 3-week after sterilization, average
[14] = 3-week after sterilization, samples 1, 2
[15] = sterile (after retort 217° F. 25 min), samples 1, 2
[16] = sterile (after retort), average

6′-SL [1, 3]: 10.7 mg/L
Lactose [1, 3]: 149 mg/L
Sialic acid [1, 3]: 83.6 mg/L
% Remaining * (6′-SL) [1, 3]: 5.35%
6′-SL [1, 4]: 10.39 mg/L and 11 mg/L
Lactose [1, 4]: 149.4 mg/L
Sialic acid [1, 4]: 83.46 mg/L and 83.79 mg/L
% Remaining * (6′-SL) [1, 4]: 5.195% and 5.502%
6′-SL [1, 5]: 173 mg/L
Lactose [1, 5]: 24.6 mg/L
Sialic acid [1, 5]: 4.95 mg/L
% Remaining * (6′-SL) [1, 5]: 86.3%
6′-SL [1, 6]: 170.8 mg/L and 174.5 mg/L
Lactose [1, 6]: 24.22 mg/L and 24.9 mg/L
Sialic acid [1, 6]: 5.055 mg/L and 4.842 mg/L
% Remaining * (6′-SL) [1, 6]: 85.42% and 87.24%
6′-SL [1, 7]: 10.5 mg/L
% Remaining ** (6′-SL) [1, 7]: 5.27%
Lactose [1, 7]: 153 mg/L
Sialic acid [1, 7]: 82.9 mg/L
6′-SL [1, 8]: 10.5 mg/L and 10.6 mg/L
% Remaining ** (6′-SL) [1, 8]: 5.249% and 5.3%
Lactose [1, 8]: 152.2 mg/L and 154.0 mg/L
Sialic acid [1, 8]: 82.89 mg/L and 82.96 mg/L
6′-SL [1, 9]: 10.5 mg/L
% Remaining ** (6′-SL) [1, 9]: 5.26%
Lactose [1, 9]: 172 mg/L
Sialic acid [1, 9]: 98 mg/L
6′-SL [1, 10]: 10.47 mg/L and 10.59 mg/L
% Remaining ** (6′-SL) [1, 10]: 5.234% and 5.295%
Lactose [1, 10]: 170.5 mg/L and 174.4 mg/L
Sialic acid [1, 10]: 98.77 mg/L and 97.2 mg/L
6′-SL [1, 11]: 4.6 mg/L
% Remaining ** (6′-SL) [1, 11]: 2.31%
Lactose [1, 11]: 152 mg/L
Sialic acid [1, 11]: 91.7 mg/L
6′-SL [1, 12]: 4.66 mg/L and 4.57 mg/L
% Remaining ** (6′-SL) [1, 12]: 2.330% and 2.285%
Lactose [1, 12]: 149.5 mg/L and 155.1 mg/L
Sialic acid [1, 12]: 91.10 mg/L and 92.22 mg/L
Concentration as % of the target fortification amount ([1]; 6′-SL ORC pH 3.5, at 14 weeks): 2.3%
Discoloration relative to the other test compositions ([1]; ORC pH 3.5, heat sterilized): Slight discoloration
Change of oligosaccharide level over the course of the study (in words) ([1]; ORC pH 3.5, heat sterilized, 0 D to 14 weeks): significant decrease
6′-SL [2, 13]: 10.5 mg/L
Lactose [2, 13]: 153 mg/L
Sialic acid [2, 13]: 82.9 mg/L
% Theoretical 6′-SL [2, 13]: 5.27%
6′-SL [2, 14]: 10.5 mg/L and 10.6 mg/L
Lactose [2, 14]: 152.2 mg/L and 154 mg/L
Sialic acid [2, 14]: 82.89 mg/L and 82.96 mg/L
% Theoretical 6′-SL [2, 14]: 5.249% and 5.3%
6′-SL [2, 15]: 10.39 mg/L and 11.0 mg/L
Lactose [2, 15]: 149.4 mg/L
Sialic acid [2, 15]: 83.46 mg/L and 83.79 mg/L
6′-SL [2, 16]: 10.7 mg/L
Lactose [2, 16]: 149 mg/L
Sialic acid [2, 16]: 83.6 mg/L
6′-SL ([2]; unsterile, average): 173 mg/L
Lactose ([2]; unsterile, average): 24.6 mg/L
Sialic acid ([2]; unsterile, average): 4.95 mg/L
6′-SL ([2]; unsterile, samples 1, 2): 170.8 mg/L and 174.5 mg/L
Lactose ([2]; unsterile, samples 1, 2): 24.22 mg/L and 24.90 mg/L
Sialic acid ([2]; unsterile, samples 1, 2): 5.055 mg/L and 4.842 mg/L
Further loss 3-weeks after sterilization, relative to sterilized sample (in words) ([2]; oral rehydration solution pH 3.5, 3-weeks after sterilization): No additional loss
Loss of oligosaccharide during sterilization (in words) ([2]; oral rehydration solution pH 3.5, retort 217° F. 25 min): Significant loss
Structure (SMILES): CC(=O)N[C@H]1[C@H]([C@H](O)[C@H](O)CO)O[C@@](OC[C@H]2O[C@@H](O[C@H]3[C@H](O)[C@@H](O)[C@H](O)O[C@@H]3CO)[C@H](O)[C@@H](O)[C@H]2O)(C(=O)O)C[C@@H]1O [6′-SL, 6′-sialyllactose]
